Measurements from patent US20220281841A1, “ETHYNYLHETEROCYCLES AS RHO-ASSOCIATED COILED-COIL KINASE (ROCK) INHIBITORS” (Angion Biomedica Corp., priority 2019, published 2022).
Where a name gives a salt, the structure may show the parent alone.

Columns and labels:
ROCK1 = target: T1, ROCK1 (Homo sapiens, UniProt Q13464); assay: ROCK1 kinase binding affinity, DiscoverX KINOMEscan KdELECT; conditions: equilibrium dissociation constant, 11-point 3-fold dilution series
T1 construct: purchased DiscoverX (KINOMEscan KdELECT service); host or cells: E. coli BL21-derived (T7 phage) or HEK-293
Procedure: (§1) 1. ROCK1 and ROCK2 kinase assays: The ROCK1 and ROCK2 kinase binding affinities of compounds in this invention were determined by DiscoverX's KINOMEscan™ KdELECT technology (https://www.discoverx.com/kinomescan-elect-kinase-screening-and-profiling-services): Kinase-tagged T7 phage strains were prepared in an E. coli host derived from the BL21 strain. E. coli were grown to log-phase and infected with T7 phage and incubated with shaking at 32° C. until lysis. The lysates were centrifuged and filtered to remove cell debris. The remaining kinases were produced in HEK-293 cells and subsequently tagged with DNA for qPCR detection. Streptavidin-coated magnetic beads were treated with biotinylated small molecule ligands for 30 minutes at room temperature to generate affinity resins for kinase assays. The liganded beads were blocked with excess biotin and washed with blocking buffer (SeaBlock (Pierce), 1% BSA, 0.05% Tween 20, 1 mM DTT) to remove unbound ligand and to reduce nonspecific binding. […] Test compounds were prepared as 111X stocks in 100% DMSO. Kds were determined using an 11-point 3-fold compound dilution series with three DMSO control points. […] The compounds were then diluted directly into the assays such that the final concentration of DMSO was 0.9%. All reactions performed in polypropylene 384-well plate. Each was a final volume of 0.02 ml. […] The kinase concentration in the eluates was measured by qPCR.

ROCK2 = target: T2, ROCK2 (Homo sapiens, UniProt O75116); assay: ROCK2 kinase binding affinity, DiscoverX KINOMEscan KdELECT; conditions: for ROCK 2 Selectivity: ROCK2 over ROCK1, from Kd values, N/C = not calculated; for Kd: equilibrium dissociation constant, 11-point 3-fold dilution series, read-out: Kd (μM) ROCK2
T2 construct: purchased DiscoverX (KINOMEscan KdELECT service); host or cells: E. coli BL21-derived (T7 phage) or HEK-293
Procedure: as §1

T2 sequence (O75116 whole entry): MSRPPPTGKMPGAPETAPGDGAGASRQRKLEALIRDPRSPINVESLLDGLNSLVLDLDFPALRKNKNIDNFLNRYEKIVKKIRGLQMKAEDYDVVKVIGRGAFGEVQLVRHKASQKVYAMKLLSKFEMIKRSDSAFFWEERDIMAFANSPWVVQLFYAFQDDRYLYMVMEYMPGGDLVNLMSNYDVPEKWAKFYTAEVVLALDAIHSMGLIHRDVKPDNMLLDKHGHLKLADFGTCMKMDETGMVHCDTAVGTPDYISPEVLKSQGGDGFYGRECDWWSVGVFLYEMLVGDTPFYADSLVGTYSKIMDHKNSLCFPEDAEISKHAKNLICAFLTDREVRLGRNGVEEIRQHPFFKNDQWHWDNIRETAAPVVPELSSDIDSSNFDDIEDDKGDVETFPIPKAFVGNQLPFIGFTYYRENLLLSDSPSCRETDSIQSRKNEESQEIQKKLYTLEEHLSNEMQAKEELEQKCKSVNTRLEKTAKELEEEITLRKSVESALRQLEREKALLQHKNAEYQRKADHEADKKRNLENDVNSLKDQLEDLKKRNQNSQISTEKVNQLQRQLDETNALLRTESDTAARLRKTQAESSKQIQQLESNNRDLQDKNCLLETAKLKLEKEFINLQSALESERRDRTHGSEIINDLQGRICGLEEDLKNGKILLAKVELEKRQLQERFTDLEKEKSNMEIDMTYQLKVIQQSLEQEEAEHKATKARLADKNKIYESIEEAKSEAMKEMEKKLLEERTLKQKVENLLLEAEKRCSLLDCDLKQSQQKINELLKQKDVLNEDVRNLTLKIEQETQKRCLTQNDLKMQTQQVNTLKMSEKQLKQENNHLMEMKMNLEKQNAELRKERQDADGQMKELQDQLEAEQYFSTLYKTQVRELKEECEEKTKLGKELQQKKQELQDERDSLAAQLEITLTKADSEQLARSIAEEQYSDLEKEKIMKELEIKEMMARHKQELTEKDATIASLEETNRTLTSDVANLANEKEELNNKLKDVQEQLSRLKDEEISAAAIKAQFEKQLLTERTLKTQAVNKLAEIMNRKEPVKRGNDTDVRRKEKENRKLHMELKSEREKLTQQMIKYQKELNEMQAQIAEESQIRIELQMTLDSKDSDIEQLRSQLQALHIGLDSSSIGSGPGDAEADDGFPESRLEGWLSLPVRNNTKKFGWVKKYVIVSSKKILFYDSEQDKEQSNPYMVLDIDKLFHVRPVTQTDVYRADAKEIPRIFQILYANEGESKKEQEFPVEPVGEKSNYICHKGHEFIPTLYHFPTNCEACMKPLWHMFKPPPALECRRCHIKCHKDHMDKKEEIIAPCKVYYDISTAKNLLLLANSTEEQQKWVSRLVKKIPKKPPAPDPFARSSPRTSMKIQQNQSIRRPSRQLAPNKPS
T1 sequence (Q13464 whole entry): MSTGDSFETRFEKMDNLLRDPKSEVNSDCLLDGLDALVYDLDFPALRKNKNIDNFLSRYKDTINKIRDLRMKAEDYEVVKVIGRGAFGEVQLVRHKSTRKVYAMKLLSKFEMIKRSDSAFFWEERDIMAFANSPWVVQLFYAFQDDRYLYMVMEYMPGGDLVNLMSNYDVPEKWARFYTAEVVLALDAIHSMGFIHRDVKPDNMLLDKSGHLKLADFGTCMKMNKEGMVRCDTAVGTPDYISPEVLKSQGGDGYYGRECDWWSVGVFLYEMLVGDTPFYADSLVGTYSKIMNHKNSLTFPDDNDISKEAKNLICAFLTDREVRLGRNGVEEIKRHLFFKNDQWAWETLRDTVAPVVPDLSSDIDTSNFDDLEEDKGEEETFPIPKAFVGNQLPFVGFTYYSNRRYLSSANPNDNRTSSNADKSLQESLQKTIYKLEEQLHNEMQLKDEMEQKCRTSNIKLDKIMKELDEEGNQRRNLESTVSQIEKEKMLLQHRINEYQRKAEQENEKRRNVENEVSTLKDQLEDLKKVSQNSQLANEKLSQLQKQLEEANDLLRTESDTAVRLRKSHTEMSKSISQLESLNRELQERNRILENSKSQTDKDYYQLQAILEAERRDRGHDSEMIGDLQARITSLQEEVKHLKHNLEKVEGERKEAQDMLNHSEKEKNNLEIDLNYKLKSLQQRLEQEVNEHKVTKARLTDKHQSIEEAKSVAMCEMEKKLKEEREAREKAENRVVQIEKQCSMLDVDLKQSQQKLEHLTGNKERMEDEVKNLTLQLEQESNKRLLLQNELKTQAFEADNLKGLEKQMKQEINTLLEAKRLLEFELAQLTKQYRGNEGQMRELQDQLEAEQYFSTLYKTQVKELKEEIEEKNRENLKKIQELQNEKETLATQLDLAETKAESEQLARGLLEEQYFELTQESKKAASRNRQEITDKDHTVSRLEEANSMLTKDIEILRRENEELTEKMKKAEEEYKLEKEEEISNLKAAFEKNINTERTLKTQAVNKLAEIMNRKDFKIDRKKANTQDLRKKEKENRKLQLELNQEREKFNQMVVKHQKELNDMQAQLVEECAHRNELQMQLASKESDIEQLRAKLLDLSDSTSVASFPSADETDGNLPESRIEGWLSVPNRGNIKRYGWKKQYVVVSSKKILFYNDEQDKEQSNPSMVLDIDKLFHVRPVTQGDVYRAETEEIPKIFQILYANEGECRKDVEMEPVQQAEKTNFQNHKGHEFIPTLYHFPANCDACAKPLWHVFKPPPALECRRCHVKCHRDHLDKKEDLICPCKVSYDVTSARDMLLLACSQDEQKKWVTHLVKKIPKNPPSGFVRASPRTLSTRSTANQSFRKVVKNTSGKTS

| Kd (ROCK1) | ROCK 2 Selectivity (ROCK2) | Kd (ROCK2) | Compound |
| --- | --- | --- | --- |
| 1.1 µM | 45.8 | 0.024 µM | CC1CN(c2ccc3c(c2)CN(c2nccc(-c4nccc(C#Cc5ccc6[nH]ncc6c5)n4)n2)C3)CCO1 (stereo not drawn) [Ex. 41, 4-(2-(4-((1H-Indazol-5-yl)ethynyl)-[2,4′-bipyrimidin]-2′-yl)isoindolin-5-yl)-2-methylmorpholine] |
| 0.64 µM | 7.71 | 0.083 µM | C(#Cc1ccnc(-c2ccnc(N3Cc4ccc(OCCN5CCOCC5)cc4C3)n2)n1)c1ccc2[nH]ncc2c1 [Ex. 42, 4-(2-((2-(4-((1H-Indazol-5-yl)ethynyl)-[2,4′-bipyrimidin]-2′-yl)isoindolin-5-yl)oxy)ethyl)morpholine] |
| > 30 µM | >273 | 0.11 µM | CN(C)C(=O)COc1ccc2c(c1)CN(c1nccc(-c3nccc(C#Cc4ccc5[nH]ncc5c4)n3)n1)C2 [Ex. 43, 2-((2-(4-((1H-Indazol-5-yl)ethynyl)-[2,4′-bipyrimidin]-2′-yl)isoindolin-5-yl)oxy)-N,N-dimethylacetamide] |
| 0.075 µM | 32.6 | 0.0023 µM | CNC(=O)COc1ccc2c(c1)CN(c1nccc(-c3nccc(C#Cc4ccc5[nH]ncc5c4)n3)n1)C2 [Ex. 44, 2-((2-(4-((1H-Indazol-5-yl)ethynyl)-[2,4′-bipyrimidin]-2′-yl)isoindolin-5-yl)oxy)-N-methylacetamide] |
| 0.16 µM | 51.6 | 0.0031 µM | COCCOc1ccc2c(c1)CN(c1nccc(-c3nccc(C#Cc4ccc5[nH]ncc5c4)n3)n1)C2 [Ex. 47, 5-((2′-(5-(2-Methoxyethoxy)isoindolin-2-yl)-[2,4′-bipyrimidin]-4-yl)ethynyl)-1H-indazole] |
| 11 µM | 73 | 0.15 µM | O=C(O)c1ccc(C2CN(c3nccc(-c4nccc(C#Cc5ccc6[nH]ncc6c5)n4)n3)C2)cc1 [Ex. 51, 4-(1-(4-((1H-Indazol-5-yl)ethynyl)-[2,4′-bipyrimidin]-2′-yl)azetidin-3-yl)benzoic acid] |
| 9 µM | 26.5 | 0.34 µM | C(#Cc1ccnc(-c2ccnc(N3CCN(c4ccccc4)CC3)n2)n1)c1ccc2[nH]ncc2c1 [Ex. 52, 5-((2′-(4-Phenylpiperazin-1-yl)-[2,4′-bipyrimidin]-4-yl)ethynyl)-1H-indazole] |
| 4.7 µM | 58.8 | 0.08 µM | Fc1ccc(N2CCN(c3nccc(-c4nccc(C#Cc5ccc6[nH]ncc6c5)n4)n3)CC2)cc1 [Ex. 53, 5-((2′-(4-(4-Fluorophenyl)piperazin-1-yl)-[2,4′-bipyrimidin]-4-yl)ethynyl)-1H-indazole] |
| 26 µM | 28.9 | 0.9 µM | C(#Cc1ccnc(-c2ccnc(N3CCC(c4ccccc4)CC3)n2)n1)c1ccc2[nH]ncc2c1 [Ex. 55, 5-((2′-(4-Phenylpiperidin-1-yl)-[2,4′-bipyrimidin]-4-yl)ethynyl)-1H-indazole] |
| 26 µM | 35.6 | 0.73 µM | Fc1ccc(C2CCN(c3nccc(-c4nccc(C#Cc5ccc6[nH]ncc6c5)n4)n3)CC2)cc1 [Ex. 56, 5-((2′-(4-(4-Fluorophenyl)piperidin-1-yl)-[2,4′-bipyrimidin]-4-yl)ethynyl)-1H-indazole] |
| 6.7 µM | 30.5 | 0.22 µM | Clc1ccc(C2CN(c3nccc(-c4nccc(C#Cc5ccc6[nH]ncc6c5)n4)n3)C2)cc1 [Ex. 57, 5-((2′-(3-(4-Chlorophenyl)azetidin-1-yl)-[2,4′-bipyrimidin]-4-yl)ethynyl)-1H-indazole] |
| 1.6 µM | 5 | 0.32 µM | C(#Cc1ccnc(-c2ccnc(N3CCN(c4ncc[nH]4)CC3)n2)n1)c1ccc2[nH]ncc2c1 [Ex. 58, 5-((2′-(4-(1H-Imidazol-2-yl)piperazin-1-yl)-[2,4′-bipyrimidin]-4-yl)ethynyl)-1H-indazole] |
| 16 µM | 21.3 | 0.75 µM | C(#Cc1ccnc(-c2ccnc(N3CCn4cnnc4C3)n2)n1)c1ccc2[nH]ncc2c1 [Ex. 59, 7-(4-((1H-Indazol-5-yl)ethynyl)-[2,4′-bipyrimidin]-2′-yl)-5,6,7,8-tetrahydro-[1,2,4]triazolo[4,3-a]pyrazine] |
| 9.9 µM | 47.1 | 0.21 µM | FC(F)(F)c1nnc2n1CCN(c1nccc(-c3nccc(C#Cc4ccc5[nH]ncc5c4)n3)n1)C2 [Ex. 60, 7-(4-((1H-Indazol-5-yl)ethynyl)-[2,4′-bipyrimidin]-2′-yl)-3-(trifluoromethyl)-5,6,7,8-tetrahydro-[1,2,4]triazolo[4,3-a]pyrazine] |
| 22 µM | 44.9 | 0.49 µM | Clc1ccc(N2CCN(c3nccc(-c4nccc(C#Cc5ccc6[nH]ncc6c5)n4)n3)CC2)cc1 [Ex. 61, 5-((2′-(4-(4-Chlorophenyl)piperazin-1-yl)-[2,4′-bipyrimidin]-4-yl)ethynyl)-1H-indazole] |
| 13 µM | 118.2 | 0.11 µM | Oc1ccc(N2CCN(c3nccc(-c4nccc(C#Cc5ccc6[nH]ncc6c5)n4)n3)CC2)cc1 [Ex. 62, 4-(4-(4-((1H-Indazol-5-yl)ethynyl)-[2,4′-bipyrimidin]-2′-yl)piperazin-1-yl)phenol] |

| Compound | Kd (ROCK1) | ROCK 2 Selectivity (ROCK2) | Kd (ROCK2) |
| --- | --- | --- | --- |
| FC(F)(F)c1ccc2c(c1)CN(c1nccc(-c3nccc(C#Cc4ccc5[nH]ncc5c4)n3)n1)C2 [Ex. 45, 5-((2′-(5-(Trifluoromethyl)isoindolin-2-yl)-[2,4′-bipyrimidin]-4-yl)ethynyl)-1H-indazole trifluoroacetate] | 0.1 µM | 90.9 | 0.0011 µM |
| O=C(COc1ccc2c(c1)CN(c1nccc(-c3nccc(C#Cc4ccc5[nH]ncc5c4)n3)n1)C2)NC1CC1 [Ex. 46, 2-((2-(4-((1H-Indazol-5-yl)ethynyl)-[2,4′-bipyrimidin]-2′-yl)isoindolin-5-yl)oxy)-N-cyclopropylacetamide trifluoroacetate] | 0.13 µM | 56.5 | 0.0023 µM |
| C(#Cc1ccnc(-c2ccnc(N3CC(c4ccccc4)C3)n2)n1)c1ccc2[nH]ncc2c1 [Ex. 48, 5-((2′-(3-Phenylazetidin-1-yl)-[2,4′-bipyrimidin]-4-yl)ethynyl)-1H-indazole trifluoroacetate] | 5.5 µM | 36.7 | 0.15 µM |
| COC(=O)c1ccc(C2CN(c3nccc(-c4nccc(C#Cc5ccc6[nH]ncc6c5)n4)n3)C2)cc1 [Ex. 49, Methyl 4-(1-(4-((1H-indazol-5-yl)ethynyl)-[2,4′-bipyrimidin]-2′-yl)azetidin-3-yl)benzoate trifluoroacetate] | > 30 µM | >120 | 0.25 µM |
| N#Cc1ccc(C2CN(c3nccc(-c4nccc(C#Cc5ccc6[nH]ncc6c5)n4)n3)C2)cc1 [Ex. 50, 4-(1-(4-((1H-Indazol-5-yl)ethynyl)-[2,4′-bipyrimidin]-2′-yl)azetidin-3-yl)benzonitrile trifluoroacetate] | 5.4 µM | 45 | 0.12 µM |
| CCCN1CCN(c2nccc(-c3nccc(C#Cc4ccc5[nH]ncc5c4)n3)n2)CC1 [Ex. 54, 5-((2′-(4-Propylpiperazin-1-yl)-[2,4′-bipyrimidin]-4-yl)ethynyl)-1H-indazole trifluoroacetate] | 4.6 µM | 10.2 | 0.45 µM |
